Experimental data: PubChem BioAssay AID1963976 (Molecular Pharmacology Branch, DTP, NCI, 2024)

Test system: 435261-313-R-J1-PDC tumor spheroid viability
Experiment: Anticancer human tumor 435261-313-R-J1-PDC patient-derived colon adenocarcinoma cell line growth inhibition [PI3K]
Conditions: spheroids with HUVEC and MSC; for IC50: curve of first compound; for viability, T/C: stronger effect = lower value
How it was run: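 Multi-cell spheroids combine tumor cells with HUVEC and human MSCs, treated with targeted agents alone or with inavolisib, alpelisib, duvelisib or copanlisib. Concentrations fall in half-log steps from at or near clinical Cmax, or from 10 microM where Cmax is unknown; viability read-out.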

[1] = second compound 0.00316 µM, first compound 0.0316 µM
[2] = second compound 0.00316 µM, first compound 0.1 µM
[3] = second compound 0.00316 µM, first compound 0.316 µM
[4] = second compound 0.00316 µM, first compound 1 µM
[5] = second compound 0.00316 µM, first compound 3.16 µM
[6] = second compound 0.00316 µM, first compound 10 µM
[7] = second compound 0.01 µM, first compound 0.0316 µM
[8] = second compound 0.01 µM, first compound 0.1 µM
[9] = second compound 0.01 µM, first compound 0.316 µM
[10] = second compound 0.01 µM, first compound 1 µM
[11] = second compound 0.01 µM, first compound 3.16 µM
[12] = second compound 0.01 µM, first compound 10 µM
[13] = second compound 0.0316 µM, first compound 0.0316 µM
[14] = second compound 0.0316 µM, first compound 0.1 µM
[15] = second compound 0.0316 µM, first compound 0.316 µM
[16] = second compound 0.0316 µM, first compound 1 µM
[17] = second compound 0.0316 µM, first compound 3.16 µM
[18] = second compound 0.0316 µM, first compound 10 µM
[19] = second compound 0.1 µM, first compound 0.0316 µM
[20] = second compound 0.1 µM, first compound 0.1 µM
[21] = second compound 0.1 µM, first compound 0.316 µM
[22] = second compound 0.1 µM, first compound 1 µM
[23] = second compound 0.1 µM, first compound 3.16 µM
[24] = second compound 0.1 µM, first compound 10 µM
[25] = second compound 0.316 µM, first compound 0.0316 µM
[26] = second compound 0.316 µM, first compound 0.1 µM
[27] = second compound 0.316 µM, first compound 0.316 µM
[28] = second compound 0.316 µM, first compound 1 µM
[29] = second compound 0.316 µM, first compound 3.16 µM
[30] = second compound 0.316 µM, first compound 10 µM
[31] = second compound 1 µM, first compound 0.0316 µM
[32] = second compound 1 µM, first compound 0.1 µM
[33] = second compound 1 µM, first compound 0.316 µM
[34] = second compound 1 µM, first compound 1 µM
[35] = second compound 1 µM, first compound 3.16 µM
[36] = second compound 1 µM, first compound 10 µM
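Further: spheroids exposed to compounds for 7 days.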

`C=CC(=O)N1CCN(c2nc(=O)n(-c3c(C)ccnc3C(C)C)c3nc(-c4c(O)cccc4F)c(F)cc23)C(C)C1` (centres undefined) + COc1c(OCCCN2CCOCC2)ccc2c3n(c(=NC(=O)c4cnc(N)nc4)nc12)CCN3 was tested, and the IC50 (second compound 0.00316 µM) was over 10000 nM, the IC50 (second compound 0.01 µM) was under 31.6 nM and the IC50 (second compound 0.0316 µM) was under 31.6 nM. For the same compound, the IC50 (second compound 0.1 µM) was under 31.6 nM, the IC50 (second compound 0.316 µM) was under 31.6 nM and the IC50 (second compound 1 µM) was under 31.6 nM. For the same compound, the viability, T/C [1] was 86.8%, the viability, T/C [2] was 78.2% and the viability, T/C [3] was 99%. It also gave a viability, T/C [4] of 63.5%, a viability, T/C [5] of 101% and a viability, T/C [6] of 97.9%. The viability, T/C [7] was 45.5%, the viability, T/C [8] was 56.6% and the viability, T/C [9] was 47.7%. The viability, T/C [10] was 64.7%, the viability, T/C [11] was 60.2% and the viability, T/C [12] was 85%. The viability, T/C [13] was 25.5%, the viability, T/C [14] was 36.7% and the viability, T/C [15] was 29%. The viability, T/C [16] was 30.6%, the viability, T/C [17] was 26.3% and the viability, T/C [18] was 30.6%. It also gave a viability, T/C [19] of 15.9%, a viability, T/C [20] of 16.5% and a viability, T/C [21] of 17.5%. It also gave a viability, T/C [22] of 18.7%, a viability, T/C [23] of 15.4% and a viability, T/C [24] of 16.1%. For the same compound, the viability, T/C [25] was 8.2%, the viability, T/C [26] was 8.82% and the viability, T/C [27] was 7.92%. For the same compound, the viability, T/C [28] was 8.17%, the viability, T/C [29] was 6.9% and the viability, T/C [30] was 5.27%. It also gave a viability, T/C [31] of 4.55%, a viability, T/C [32] of 3.78% and a viability, T/C [33] of 3.56%. It also gave a viability, T/C [34] of 3.98%, a viability, T/C [35] of 3.29% and a viability, T/C [36] of 2.04%.

Compound `CC(C)NCC(C(=O)N1CCN(c2ncnc3c2C(C)CC3O)CC1)c1ccc(Cl)cc1` (centres undefined) + COc1c(OCCCN2CCOCC2)ccc2c3n(c(=NC(=O)c4cnc(N)nc4)nc12)CCN3 has an IC50 (second compound 0.00316 µM) of 765 nM, an IC50 (second compound 0.01 µM) of 664 nM and an IC50 (second compound 0.0316 µM) of under 31.6 nM. For the same compound, the IC50 (second compound 0.1 µM) was under 31.6 nM, the IC50 (second compound 0.316 µM) was under 31.6 nM and the IC50 (second compound 1 µM) was under 31.6 nM. For the same compound, the viability, T/C [1] was 77.5%, the viability, T/C [2] was 57.4% and the viability, T/C [3] was 67.4%. It also gave a viability, T/C [4] of 45%, a viability, T/C [5] of 25.9% and a viability, T/C [6] of 18.1%. It also gave a viability, T/C [7] of 35.5%, a viability, T/C [8] of 72.5% and a viability, T/C [9] of 53.8%. The viability, T/C [10] was 45.8%, the viability, T/C [11] was 37.2% and the viability, T/C [12] was 22.3%. It also gave a viability, T/C [13] of 29%, a viability, T/C [14] of 24.9% and a viability, T/C [15] of 40.3%. The viability, T/C [16] was 17.9%, the viability, T/C [17] was 17.2% and the viability, T/C [18] was 13.7%. For the same compound, the viability, T/C [19] was 16.9%, the viability, T/C [20] was 13.9% and the viability, T/C [21] was 18.2%. For the same compound, the viability, T/C [22] was 14.3%, the viability, T/C [23] was 14.1% and the viability, T/C [24] was 8.48%. It also gave a viability, T/C [25] of 8.02%, a viability, T/C [26] of 10% and a viability, T/C [27] of 8.48%. For the same compound, the viability, T/C [28] was 7.53%, the viability, T/C [29] was 6.85% and the viability, T/C [30] was 3.75%. It also gave a viability, T/C [31] of 3.46%, a viability, T/C [32] of 4.26% and a viability, T/C [33] of 3.88%. For the same compound, the viability, T/C [34] was 3.78%, the viability, T/C [35] was 3.18% and the viability, T/C [36] was 1.67%.
